PubChem BioAssay AID180 (DTP/NCI, 2004)
Values joined by “and” are separate entries in the source; they are usually repeats but may differ in a detail not shown here. Identical values can stand only once.

System: BDF1 mice, Adenocarcinoma 755 s.c., tumor weight T/C
Assay: NCI In Vivo Anticancer Drug Screen. Data for tumor model Adenocarcinoma 755 (subcutaneous) in B6D2F1 (BDF1) mice
Conditions: endpoint: mean tumor weight, higher = larger tumour
Outline: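 Readout: T/C, i.e. treated-group measurement over vehicle-control measurement. Endpoint is survival or tumor size in tumor-bearing mice given compound.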

Structure (SMILES): OCC1OC(n2cnc3c(=S)nc[nH]c32)C(O)C1O (configuration not stated)
- T/C (dose: 0.28 mg/kg/injection, schedule: Q01DX011 (ip), vehicle: carboxymethylcellulose (CMC)): 47 % of control
- T/C (dose: 0.5 mg/kg/injection, schedule: Q01DX011 (ip), vehicle: saline): 31 % of control
- T/C (dose: 0.56 mg/kg/injection, schedule: Q01DX011 (ip), vehicle: carboxymethylcellulose (CMC)): 100 % of control
- T/C (dose: 1.0 mg/kg/injection, schedule: Q01DX011 (oral), vehicle: methylcellulose (MC)): 59 % of control
- T/C (dose: 1.0 mg/kg/injection, schedule: Q01DX011 (oral), vehicle: saline): 63 % of control
- T/C (dose: 1.12 mg/kg/injection, schedule: Q01DX011 (ip), vehicle: carboxymethylcellulose (CMC)): 30 % of control
- T/C (dose: 1.25 mg/kg/injection, schedule: Q01DX011 (ip), vehicle: saline): 26 % of control
- T/C (dose: 1.5 mg/kg/injection, schedule: Q01DX011 (ip), vehicle: carboxymethylcellulose (CMC)): 65 % of control
- T/C (dose: 2.0 mg/kg/injection, schedule: Q01DX011 (oral), vehicle: methylcellulose (MC)): 9 % of control
- T/C (dose: 2.0 mg/kg/injection, schedule: Q01DX011 (oral), vehicle: saline): 47 % of control
- T/C (dose: 2.23 mg/kg/injection, schedule: Q01DX011 (ip), vehicle: carboxymethylcellulose (CMC)): 4 % of control and 7 % of control
- T/C (dose: 2.5 mg/kg/injection, schedule: Q01DX011 (ip), vehicle: carboxymethylcellulose (CMC)): 34 % of control
- T/C (dose: 3.0 mg/kg/injection, schedule: Q01DX011 (oral), vehicle: methylcellulose (MC)): 14 % of control
- T/C (dose: 3.75 mg/kg/injection, schedule: Q01DX011 (ip), vehicle: carboxymethylcellulose (CMC)): 6 % of control and 12 % of control
- T/C (dose: 4.0 mg/kg/injection, schedule: Q01DX011 (oral), vehicle: methylcellulose (MC)): 4 % of control
- T/C (dose: 4.0 mg/kg/injection, schedule: Q01DX011 (oral), vehicle: saline): 9 % of control
- T/C (dose: 4.47 mg/kg/injection, schedule: Q01DX011 (ip), vehicle: carboxymethylcellulose (CMC)): 10 % of control
- T/C (dose: 5.0 mg/kg/injection, schedule: Q01DX011 (oral), vehicle: methylcellulose (MC)): 3 % of control
- T/C (dose: 7.5 mg/kg/injection, schedule: Q01DX011 (ip), vehicle: carboxymethylcellulose (CMC)): 5 % of control and 8 % of control
- T/C (dose: 8.0 mg/kg/injection, schedule: Q01DX011 (oral), vehicle: saline): 7 % of control
- T/C (dose: 8.94 mg/kg/injection, schedule: Q01DX011 (ip), vehicle: carboxymethylcellulose (CMC)): 5 % of control
- T/C (dose: 10.0 mg/kg/injection, schedule: Q01DX006 (iv), vehicle: saline): 2 % of control
- T/C (dose: 10.0 mg/kg/injection, schedule: Q01DX011 (ip), vehicle: saline): 4 % of control
- T/C (dose: 10.0 mg/kg/injection, schedule: Q01DX011 (oral), vehicle: methylcellulose (MC)): 2 % of control
- T/C (dose: 10.0 mg/kg/injection, schedule: Q01DX011 (sc), vehicle: saline): 4 % of control
- T/C (dose: 10.0 mg/kg/injection, schedule: Q03DX004 (im), vehicle: saline): 3 % of control
- T/C (dose: 15.0 mg/kg/injection, schedule: Q01DX011 (ip), vehicle: carboxymethylcellulose (CMC)): 2 % of control and 7 % of control
- T/C (dose: 17.87 mg/kg/injection, schedule: Q01DX011 (ip), vehicle: carboxymethylcellulose (CMC)): 6 % of control
- T/C (dose: 18.75 mg/kg/injection, schedule: Q01DX011 (ip), vehicle: carboxymethylcellulose (CMC)): 2 % of control
- T/C (dose: 20.0 mg/kg/injection, schedule: Q01DX006 (iv), vehicle: saline): 2 % of control
- T/C (dose: 20.0 mg/kg/injection, schedule: Q01DX011 (ip), vehicle: saline): 4 % of control
- T/C (dose: 20.0 mg/kg/injection, schedule: Q01DX011 (sc), vehicle: saline): 2 % of control
- T/C (dose: 20.0 mg/kg/injection, schedule: Q03DX004 (im), vehicle: saline): 2 % of control
- T/C (dose: 25.0 mg/kg/injection, schedule: Q01DX011 (ip), vehicle: carboxymethylcellulose (CMC)): 3 % of control
- T/C (dose: 35.75 mg/kg/injection, schedule: Q01DX011 (ip), vehicle: carboxymethylcellulose (CMC)): 5 % of control
- T/C (dose: 37.5 mg/kg/injection, schedule: Q01DX011 (ip), vehicle: carboxymethylcellulose (CMC)): 2 % of control and 5 % of control
- T/C (dose: 40.0 mg/kg/injection, schedule: Q01DX006 (iv), vehicle: saline): 3 % of control
- T/C (dose: 40.0 mg/kg/injection, schedule: Q01DX010 (oral), vehicle: saline): 3 % of control
- T/C (dose: 40.0 mg/kg/injection, schedule: Q01DX011 (ip), vehicle: saline): 3 % of control
- T/C (dose: 40.0 mg/kg/injection, schedule: Q01DX011 (sc), vehicle: saline): 4 % of control
- T/C (dose: 40.0 mg/kg/injection, schedule: Q03DX004 (im), vehicle: saline): 1 % of control
- T/C (dose: 57.0 mg/kg/injection, schedule: Q01DX011 (ip), vehicle: carboxymethylcellulose (CMC)): 9 % of control
- T/C (dose: 71.5 mg/kg/injection, schedule: Q01DX011 (ip), vehicle: carboxymethylcellulose (CMC)): 5 % of control
- T/C (dose: 73.0 mg/kg/injection, schedule: Q01DX011 (ip), vehicle: carboxymethylcellulose (CMC)): 4 % of control
- T/C (dose: 75.0 mg/kg/injection, schedule: Q01DX011 (ip), vehicle: carboxymethylcellulose (CMC)): 4 % of control
- T/C (dose: 80.0 mg/kg/injection, schedule: Q01DX006 (iv), vehicle: saline): 3 % of control
- T/C (dose: 80.0 mg/kg/injection, schedule: Q01DX011 (ip), vehicle: alkali diluted with saline): 4 % of control
- T/C (dose: 80.0 mg/kg/injection, schedule: Q01DX011 (ip), vehicle: saline): 5 % of control
- T/C (dose: 80.0 mg/kg/injection, schedule: Q01DX011 (sc), vehicle: saline): 4 % of control
- T/C (dose: 80.0 mg/kg/injection, schedule: Q03DX004 (im), vehicle: saline): 2 % of control
- T/C (dose: 115.0 mg/kg/injection, schedule: Q01DX011 (ip), vehicle: carboxymethylcellulose (CMC)): 3 % of control
- T/C (dose: 120.0 mg/kg/injection, schedule: Q01DX011 (ip), vehicle: alkali diluted with saline): 2 % of control and 3 % of control
- T/C (dose: 143.0 mg/kg/injection, schedule: Q01DX011 (ip), vehicle: carboxymethylcellulose (CMC)): 5 % of control
- T/C (dose: 146.0 mg/kg/injection, schedule: Q01DX011 (ip), vehicle: carboxymethylcellulose (CMC)): 6 % of control
- T/C (dose: 150.0 mg/kg/injection, schedule: Q01DX011 (ip), vehicle: carboxymethylcellulose (CMC)): 4 % of control
- T/C (dose: 160.0 mg/kg/injection, schedule: Q01DX011 (ip), vehicle: alkali diluted with saline): 3 % of control
- T/C (dose: 200.0 mg/kg/injection, schedule: Q01DX011 (ip), vehicle: carboxymethylcellulose (CMC)): 6 % of control
- T/C (dose: 225.0 mg/kg/injection, schedule: Q01DX011 (ip), vehicle: carboxymethylcellulose (CMC)): 6 % of control
- T/C (dose: 231.0 mg/kg/injection, schedule: Q01DX011 (ip), vehicle: carboxymethylcellulose (CMC)): 5 % of control
- T/C (dose: 250.0 mg/kg/injection, schedule: Q01DX011 (ip), vehicle: carboxymethylcellulose (CMC)): 3 % of control
- T/C (dose: 300.0 mg/kg/injection, schedule: Q01DX011 (ip), vehicle: carboxymethylcellulose (CMC)): 7 % of control
- T/C (dose: 320.0 mg/kg/injection, schedule: Q01DX001 (ip), vehicle: alkali diluted with saline): 5 % of control and 7 % of control
- T/C (dose: 320.0 mg/kg/injection, schedule: Q01DX001 (oral), vehicle: alkali diluted with saline): 18 % of control
- T/C (dose: 320.0 mg/kg/injection, schedule: Q03DX004 (ip), vehicle: alkali diluted with saline): 1 % of control and 5 % of control
- T/C (dose: 320.0 mg/kg/injection, schedule: Q03DX004 (oral), vehicle: alkali diluted with saline): 2 % of control
- T/C (dose: 320.0 mg/kg/injection, schedule: Q07DX002 (ip), vehicle: alkali diluted with saline): 3 % of control and 7 % of control
- T/C (dose: 320.0 mg/kg/injection, schedule: Q07DX002 (oral), vehicle: alkali diluted with saline): 4 % of control
- T/C (dose: 480.0 mg/kg/injection, schedule: Q01DX001 (ip), vehicle: alkali diluted with saline): 4 % of control and 9 % of control
- T/C (dose: 480.0 mg/kg/injection, schedule: Q01DX001 (oral), vehicle: alkali diluted with saline): 8 % of control
- T/C (dose: 480.0 mg/kg/injection, schedule: Q03DX004 (ip), vehicle: alkali diluted with saline): 2 % of control and 3 % of control
- T/C (dose: 480.0 mg/kg/injection, schedule: Q07DX002 (ip), vehicle: alkali diluted with saline): 6 % of control
- T/C (dose: 480.0 mg/kg/injection, schedule: Q07DX002 (oral), vehicle: alkali diluted with saline): 7 % of control
- T/C (dose: 640.0 mg/kg/injection, schedule: Q01DX001 (ip), vehicle: alkali diluted with saline): 5 % of control
- T/C (dose: 640.0 mg/kg/injection, schedule: Q01DX001 (oral), vehicle: alkali diluted with saline): 9 % of control
- T/C (dose: 640.0 mg/kg/injection, schedule: Q07DX002 (ip), vehicle: alkali diluted with saline): 4 % of control
- T/C (dose: 640.0 mg/kg/injection, schedule: Q07DX002 (oral), vehicle: alkali diluted with saline): 3 % of control
- T/C (dose: 960.0 mg/kg/injection, schedule: Q01DX001 (oral), vehicle: alkali diluted with saline): 9 % of control
- T/C (dose: 960.0 mg/kg/injection, schedule: Q07DX002 (oral), vehicle: alkali diluted with saline): 6 % of control

Structure (SMILES): c1ccc2cc(-c3cc4ccccc4s3)ccc2c1
- T/C (dose: 100.0 mg/kg/injection, schedule: Q01DX011 (ip), vehicle: saline): 70 % of control
- T/C (dose: 200.0 mg/kg/injection, schedule: Q01DX011 (ip), vehicle: saline): 59 % of control
- T/C (dose: 400.0 mg/kg/injection, schedule: Q01DX011 (ip), vehicle: saline): 49 % of control
- T/C (dose: 800.0 mg/kg/injection, schedule: Q01DX011 (ip), vehicle: saline): 42 % of control
